Laboratory results: article PMC9253268 (Frontiers in Immunology, 2022)

Key:
AIA-M rat model = assay: Histology of knee joints of AIA-M rats (H&E, safranin O fast green, Masson trichrome); assay type: in vivo; settings: all p < 0.05
Protocol: The viscera indexes were calculated by the weight of the thymus, spleen, liver, and kidney relative to total […]. Histological changes were examined using hematoxylin and eosin (H&E), safranin O-fast green (Solarbio, Beijing, China), and Masson trichrome staining (Baso, Wuhan, China) according to routine protocols. Please see detailed information on the protocol in Supplementary Materials Section 5 . […]
after BHGZD administration (5), respectively.
The rats were acclimatized to an apparatus consisting of individual perspex boxes. With the aid of syringe (1mL), 500μL acetone was sprayed gently from a short distance to the middle of the plantar surface of hind paw. […] The amount of time that rats were licking and/or shaking the hind paw was recorded during 5min after acetone application and was used as an index of nocifensive response for cold hypersensitivity (6). The licking and/or shaking time was measured at 0, 5, 10, 15, 25th day after BHGZD administration, […]
For thermal-induced hyperalgesia, the rats were placed for 30minin an apparatus consisting of individual perspex boxes with Hargreaves radiant heat apparatus (Ugo Basile Srl, Comerio VA, Italy) and an infrared radiant heat (40W) source was directed to middle part of the plantar surface of the hind paw. […] The paw withdrawal latency was measured at 0, 5, 10, 15, 25th day after BHGZD administration, respectively. […]

[1] = tested on: NLRP3 inflammasome-induced pyroptosis; assay: NLRP3 inflammasome-induced pyroptosis markers in AIA-M rats (TUNEL, IHC, Western blotting, ELISA); assay type: in vivo, rat; settings: all p < 0.05
Protocol: The occurrence of pyroptosis in both MH7A cells and synovium tissues in AIA-M rats was determined by in situ TUNEL staining (TUNEL Andy Fluor™ 594 Apoptosis Detection Kit, ABP Biosciences, Wuhan, China) in accordance with the manufacturer’s protocol. Fluorescence images were visualized and photographed with inverted fluorescence microscopes (MF53, MSHOT, Guangzhou, China; Olympus, BX51, Tokyo, Japan). Detailed information on TUNEL assay is provided in Supplementary Materials Section 18 .
To detect the expression levels of NLPR3/ASC of the knee joints in AIA-M rats and corresponding treatment groups, immunohistochemical staining was carried out using a DAB kit (Cat No. AR1027, Boster Biological Technology Co., Ltd., Wuhan, China) and a rabbit/mouse two-step detection kit (Cat No. SV0002/SV0001, Boster Biological Technology Co., Ltd., Wuhan, China) according to the routine protocols. Immunohistochemistry quantification was performed using ImageJ (Image Progressing and Analysis in Java, version 1.42q, https://imagej.nih.gov/ij/), following the ImageJ User Guide. […]
Cell apoptosis was determined by in situ terminal deoxynucleotidyl transferase-mediated dUTP-biotin nick end-labeling reaction (TUNEL) staining (TUNEL Andy Fluor™ 594 Apoptosis Detection Kit, ABP Biosciences, Wuhan, China) in accordance with the […]

CN(Cc1cnc2nc(N)nc(N)c2n1)c1ccc(C(=O)N[C@@H](CCC(=O)O)C(=O)O)cc1 [MTX, methotrexate]
histopathological changes of knee joints (inflammatory cell infiltration, cartilage and bone destruction, synovial hyperplasia) (AIA-M rat model): apparently reversed | activities of GSDMD-NT in sera and its levels in knee joints [1]: reduced | activity of LDH in the sera [1]: significantly decreased
